We go through one compound from patent US20260198495A1, “BINARY INSECTICIDE COMPOSITION AND USE THEREOF” (SHENYANG SINOCHEM AGROCHEMICALS R & D CO., LTD., priority 2022, published 2026).

Common to all, as to assay type: in vivo
Test [1] concerns adult Phyllotreta vittuta Fabr. Briefly: Joint toxicity of I-72 + deltamethrin, Example 45, Table 45. The settings on record: A = compound I-72, B = deltamethrin; potted cabbage seedling spraying; 72 hours; read-out: LC50. The method, then: Test target: adult Phyllotreta vittuta Fabr.
(§1) Preparation of the pesticide solution: according to different test requirements, the test samples were accurately weighed respectively with an electronic analytical balance. The technical pesticides were dissolved in acetone, and then diluted with 0.1% Tween 80 water into a series of pesticide solutions with a certain concentration gradient according to the experimental design dosage.
Experimental method: first, uniform and consistent potted cabbage seedlings were selected. Then, uniform spraying was performed with the pesticide solution in the order from low dosage to high dosage according to the experimental design. After air-drying in the shade, adult flea beetles were transferred onto the treated cabbage seedlings, and then glass covers were put on them, with about 30-40 adult flea beetles on each seedling and 3 replicates for each treatment. In addition, a blank control was set up.
(§2) The treated test materials were placed in an observation room, and the temperature, humidity and illumination of the observation room could be adjusted as needed. The number of dead and live insects was investigated 72 hours later. […] Then, the co-toxicity coefficient of each ratio was calculated using the Sun Y-P method to evaluate the mixing effect (the same as in Example 1).

Test [2] relates to 2nd-instar larvae of Spodoptera exigua Hübner. Description: whole plant or invertebrate. The settings on record: Spodoptera exigua, foliar; A = compound I-72, B = tetrachlorantraniliprole; cabbage leaf dipping; 72 hours; read-out: LC50. As to the method: Test target: 2nd-instar larvae of Spodoptera exigua Hübner.
as §1
Experimental method: first, cabbage leaves were selected and dipped in the prepared pesticide solution for 10 s in the order from low dosage to high dosage according to the experimental design. After natural air-drying in the shade, they were placed in a 9-cm-diameter Petri dish with filter paper, and uniform and healthy test insects were introduced, with 10 insects for each treatment and 3 replicates for each treatment. In addition, a blank control was set up.
The treated test materials were placed in an observation room, and the temperature, humidity and illumination of the observation room could be adjusted as needed. The number of dead and live insects was investigated 72 hours later.

Test [3] has as its system 3-instar larvae of Ostrinia furnacnlis Guenee. Briefly: Joint toxicity of I-72 + flubendiamide, Example 61, Table 61. The settings on record: A = compound I-72, B = flubendiamide, corn stem dipping, 72 hours, read-out: LC50. As to the method: Test target: 3-instar larvae of Ostrinia furnacnlis Guenee.
as §1
Experimental method: first, tender corn stems were selected and dipped in the prepared pesticide solution for 10 s in the order from low dosage to high dosage according to the experimental design. After natural air-drying in the shade, they were placed in a 9-cm-diameter Petri dish with filter paper, and uniform and healthy test insects were introduced, with 10 insects for each treatment and 3 replicates for each treatment. In addition, a blank control was set up.
as §2

In test [4] the test system is 3rd-instar larvae of Ostrinia furnacalis Guenee. Description: Synergism screening (Bliss) of I-72 + ecdysteroid and juvenile hormone insecticides, Example 51, Table 51. Particulars: Ostrinia furnacalis; single pesticide, 2 mg/L; 72 hours; read-out: Measured mortality rate. As to the method: Test target: 3rd-instar larvae of Ostrinia furnacalis Guenee.
as §1
Experimental method: first, tender corn stems were selected and dipped in the prepared pesticide solution for 10 s in the order from low dosage to high dosage according to the experimental design. After natural air-drying in the shade, they were placed in a 9-cm-diameter Petri dish with filter paper, and uniform and healthy test insects were introduced, with 10 insects for each treatment and 3 replicates for each treatment. In addition, a blank control (CK) was set up.
The treated test materials were placed in an observation room, and the temperature, humidity and illumination of the observation room could be adjusted as needed. The number of dead and alive insects was investigated 72 hours later, and the corrected mortality rate was calculated using the Abbott's formula.
The synergism of the mixture was evaluated by adopting the Bliss method, as in Example 5.

Test [5] has as its system 2nd-instar nymphs of Frankliniella occidentalis Pergande. Description: Joint toxicity of I-72 + carbosulfan, leaf spraying, Example 22, Table 22. The settings on record: 2nd-instar nymphs, kidney bean leaf spraying, 48 h, A = compound I-72, B = carbosulfan, read-out: LC50. The method, then: Test subject: 2nd-instar nymphs of Frankliniella occidentalis Pergande, a sensitive strain reared indoors.
Preparation of the pesticide solution: according to different test requirements, the test samples in Table 1 were accurately weighed respectively with an electronic analytical balance. The technical pesticides were dissolved in acetone, and then diluted with 0.1% Tween 80 water into a series of pesticide solutions with a certain concentration gradient according to the experimental design dosage.
Test conditions: temperature: 25-27° C., humidity: RH 60%, and illumination: L:D=14:10
Experimental method: the spraying method was adopted. The kidney bean leaves cultivated in the greenhouse were selected, and the petioles were wrapped with moist degreased cotton and sealing film. They were evenly sprayed with the pesticide solution in the order from low dosage to high dosage according to the experimental design, placed in a 6-cm-diameter Petri dish with filter paper. After natural air-drying in the shade, the test insects were introduced, with 20 insects for each treatment and 3 replicates. In addition, a blank control was set up. […] The corrected mortality rate was calculated using the Abbott's formula, and the DPS data processing software was used for statistical analysis to calculate the toxicities (LC50 values) of the single test pesticides and the mixtures under the test ratios. […]

Test [6] concerns Sitobion miscanthi (Fabricius). Briefly: whole plant or invertebrate. Particulars: Sitobion miscanthi, in Triticum aestivum; single pesticide, 10 mg/L; 48 hours; read-out: Measured mortality rate. As to the method:
Test target: Sitobion miscanthi (Fabricius).
as §1
Experimental method: first, wheat seedlings with uniform and consistent Sitobion miscanthi (Fabricius) were selected, with about 30-40 insects on each pot of wheat. Then, they were evenly sprayed with the pesticide solution in the order from low dosage to high dosage according to the experimental design, with 2.5 mL for each pot and 3 replicates for each treatment. In addition, a blank control CK was set up.
The treated test materials were placed in an observation room, and the temperature, humidity and illumination of the observation room could be adjusted as needed. The number of dead and alive insects was investigated 48 hours later, and the corrected mortality rate was calculated using the Abbott's formula.
The synergism of the mixture was evaluated by the Bliss method. According to the concept of independent joint action he proposed, Bliss believes that the theoretical mortality rate P when insecticides are used in combination can be calculated by the following formula: […]
Pm is the measured mortality rate (%) of the target when the first active ingredient is at a concentration of m; and Pn is the measured mortality rate (%) of the target when the second active ingredient is used at a concentration of n.
If the actual mortality rate of the target after the two active ingredients are mixed at a certain concentration is greater than theoretical mortality rate P, it is determined that the two active ingredients have a synergistic effect when used in combination at the set concentration, and otherwise, they have an antagonistic effect.

In brackets after ≈: the same amount, converted by molar mass.

The term LC50 denotes the concentration lethal to half of the exposed cells or organisms. The term mortality denotes the share of the test organisms that died. For the compound `CN(C(=O)c1ccc2c(c1)OC(F)(F)O2)c1cccc(C(=O)Nc2c(Br)cc(C(F)(C(F)(F)F)C(F)(F)F)cc2OC(F)F)c1F` [Compound I-72], the LC50 in test [1] worked out at 1.24 µg/mL; in test [2], 0.252 µg/mL (≈ 0.339 µM); in test [3] it was 0.804 µg/mL; in test [5], 2.15 µg/mL. The mortality at 2 µg/mL in test [4] is 75.9%. Moreover, the mortality at 10 µg/mL in test [6] was found to be 64.2%.
